In data set [1] the test system is HIV-1 (IIIB strain). The class given is cell-based. The following applies: for EC50: anti-HIV-1 activity; for SI: selectivity index (CC50/EC50). The protocol: Compounds. Compounds were solubilized in DMSO at 200 mM and then diluted into culture medium.
(§1) Cells and viruses. MT-4, C8166,H9/IIIB and CEM cells were grown at 37° C. in a 5% CO2 atmosphere in RPMI 1640 medium, supplemented with 10% fetal calf serum (FCS), 100 IU/mL penicillin and 100 μg/mL streptomycin. Cell cultures were checked periodically for the absence of mycoplasma contamination with a MycoTect Kit (Gibco). Human immunodeficiency virus type-I (HIV-1, IIIB strain) was obtained from supernatants of persistently infected H9/IIIB cells.
HIV Titration. Titration of HIV was performed in C8166 cells by the standard limiting dilution method (dilution 1:2, four replica wells per dilution) in 96-well plates. The infectious virus titre was determined by light microscope scoring of cytopathicity after 4 days of incubation and the virus titres were expressed as CCID50/mL.
(§2) Anti-HIV Assays. Activity of the compounds against HIV-1 and HIV-2 multiplication in acutely infected cells was based on the inhibition of virus-induced cytopathicity in MT-4 and C8166 cells, respectively. Briefly, 50 μL of culture medium containing 1×10^4 cells were added to each well of flat-bottom microtiter trays containing 50 μl of culture medium with or without various concentrations of the test compounds. Then 20 μL of an HIV suspension containing 100 CCID50 were added. After a 4-day incubation at 37° C., the number of viable cells was determined by the 3-(4,5-dimethylthiazol-[…])-2,5-diphenyltetrazolium bromide (MTT) method. Cytotoxicity of the compounds was evaluated in parallel with their antiviral activity. It was based on the viability of mock-infected cells, as monitored by the MTT method.

Data set [2] has as its system mock-infected MT-4 cells. Kind of data set: Cytotoxicity: viability of mock-infected cells by the MTT method. The class given is cell-based, human. The protocol:
as §1, §2
(In general: Tetrazolium dyes change colour on reduction, which living cells bring about.)

Where [3] appears, read: acutely infected MT-4 cells, MTT.

One may read the EC50 as the concentration that produces a half-maximal response. The CC50 is the concentration giving 50% cytotoxicity. Read a low CC50 as harm at low concentration.

Each structure is given as a SMILES string. Like-named read-outs stand apart in the source and are kept apart here.

In the case of `Cc1c(C(C)c2c(F)cccc2F)nc(SC2CCCC2)[nH]c1=O` (single isomer, unassigned) [MC 1047+], it took 0.002 µM to reach a half-maximal effect in data set [1] (setting [3]) (EC50). In addition, the CC50 in data set [2] (MTT) was above 200 µM.
In the same order, the values of `Cc1c(C(C)c2c(F)cccc2F)nc(SC2CCCC2)[nH]c1=O` (single isomer, unassigned) [MC 1047−] are 0.7 µM and above 200 µM.
Consider `Cc1c(C(C)c2c(F)cccc2F)nc(NC2CCCC2)[nH]c1=O` (centres unmarked) [MC1129, 2-Cyclopentylamino-6-{1-(2,6-difluorophenyl)ethyl}-3,4-dihydro-5-methylpyrimidin-4-(3H)-one], for which a half-maximal response in data set [1] (HIV-1-infected MT-4 cells) (EC50) required 0.02 µM. Also, the SI in data set [1] is given as 4,500. This molecule gave a CC50 in data set [2] of 90 µM.
Molecule `CC1CCC(C)C(Oc2nc(Cc3ccccc3)cc(=O)[nH]2)C1` (centres unmarked) [MC 507] gave an EC50 in data set [1] (HIV-1-infected MT-4 cells) of 3.5 µM. Moreover, the SI in data set [1] is 40. The molecule further returned a CC50 in data set [2] of 143 µM.
In data set [1] (HIV-1-infected MT-4 cells), `CC1CCC(Oc2nc(Cc3ccccc3)cc(=O)[nH]2)CC1C` (centres unmarked) [MC 508] registered an EC50 of 6.4 µM. The SI in data set [1] worked out at 9. In data set [2], the midpoint of cytotoxicity, the CC50, lay at 58 µM.
In the same order, the values of `CC1CC(C)CC(Oc2nc(Cc3ccccc3)cc(=O)[nH]2)C1` (centres unmarked) [MC 512] are 30 µM, above 6.7 and above 200 µM.
Taken in the same sequence, the figures for `Cc1c(Cc2ccccc2)nc(OC2CC(C)CCC2C)[nH]c1=O` (centres unmarked) [MC 531] were 3.5 µM, 39 and 138 µM.
In turn, `CCC(C)Sc1nc(C(c2ccccc2)c2ccccc2)cc(=O)[nH]1` (centres unmarked) [MC 796] showed an EC50 in data set [1] (HIV-1-infected MT-4 cells) above 61 µM. In addition, it took 61 µM to reach half-maximal cytotoxicity in data set [2] (CC50).
`CCc1c(Cc2ccccc2)nc(SC(C)CC)[nH]c1=O` (centres unmarked) [MC 798]: in data set [1] (HIV-1-infected MT-4 cells), the EC50 was 1 µM. Besides, the SI in data set [1] was above 200. In data set [2], this molecule had a CC50 above 200 µM.
In the same order, the values of `CCc1c(Cc2cccc3ccccc23)nc(SC(C)CC)[nH]c1=O` (centres unmarked) [MC 804] are 5.3 µM, above 34 and above 200 µM.
Taken in the same sequence, the figures for `CCC(C)Sc1nc(Cc2ccccc2C)cc(=O)[nH]1` (centres unmarked) [MC 806] were 1.8 µM, above 111 and above 200 µM.
In the same order, the values of `CCC(C)Sc1nc(Cc2ccc(C)cc2)cc(=O)[nH]1` (centres unmarked) [MC 809] are 0.6 µM, 333.3 and 200 µM.
Molecule `CCC(C)Sc1nc(Cc2c(Cl)cccc2Cl)cc(=O)[nH]1` (centres unmarked) [MC 815] showed an EC50 in data set [1] (HIV-1-infected MT-4 cells) of 0.14 µM. Moreover, in data set [1], the SI is recorded as >1,428. The CC50 in data set [2] was above 200 µM.
In the case of `CCC(C)Sc1nc(Cc2ccccc2[N+](=O)[O-])cc(=O)[nH]1` (centres unmarked) [MC 817], it took 0.25 µM to reach a half-maximal effect in data set [1] (HIV-1-infected MT-4 cells) (EC50). Further, in data set [1], the SI was above 800. In data set [2], this molecule gave a CC50 above 200 µM.
In the same order, the values of `CCC(C)Sc1nc(Cc2ccccc2N)cc(=O)[nH]1` (centres unmarked) [MC 825] are 21.2 µM, above 9 and above 200 µM.
Regarding `CCCCc1c(Cc2ccccc2)nc(SC(C)CC)[nH]c1=O` (centres unmarked) [MC 834], in data set [1] (HIV-1-infected MT-4 cells), the EC50 was above 200 µM. In addition, the CC50 in data set [2] is above 200 µM.
`Cc1ccccc1Cc1cc(=O)[nH]c(SC2CCCC2)n1` [MC 842] returned an EC50 in data set [1] (HIV-1-infected MT-4 cells) of 3.4 µM. Moreover, the SI in data set [1] is above 59. Further, the CC50 in data set [2] was above 200 µM.
In the same order, the values of `O=c1cc(Cc2ccccc2)nc(SCOCc2ccccc2)[nH]1` [MC 843] are 45 µM, above 4 and above 200 µM.
In the same order, the values of `CCC(C)Sc1nc(Cc2ccccc2C)c(C)c(=O)[nH]1` (centres unmarked) [MC 844] are 1.7 µM, above 118 and above 200 µM.
In the same order, the values of `CCC(C)Sc1nc(Cc2ccc(C)cc2)c(C)c(=O)[nH]1` (centres unmarked) [MC 845] are 0.8 µM, 32 and 26 µM.
Molecule `CCC(C)Sc1nc(Cc2c(F)cccc2F)cc(=O)[nH]1` (centres unmarked) [MC 848] showed an EC50 in data set [1] (HIV-1-infected MT-4 cells) of 0.04 µM. For the same molecule, in data set [1], the SI is listed as 5,000. For the same molecule, in data set [2], the midpoint of cytotoxicity, the CC50, lay at 200 µM.
As to `CCC(C)Sc1nc(Cc2c(Cl)cccc2Cl)c(C)c(=O)[nH]1` (centres unmarked) [MC 850], in data set [1] (HIV-1-infected MT-4 cells), the EC50 was 0.05 µM. Also, the SI in data set [1] is reported as >4,000. The same molecule registered a CC50 in data set [2] above 200 µM.
Taken in the same sequence, the figures for `C=CCc1c(Cc2ccccc2)nc(SC(C)CC)[nH]c1=O` (centres unmarked) [MC 852] were 3 µM, above 67 and above 200 µM.

The values above are taken from patent publication US6545007B2, “Methods for inhibiting the transmission of HIV using topically applied substituted 6-benzyl-4-oxopyrimidines” (Idenix (Cayman) Limited, priority 2000, dated 2003).
